According to PMC11714206, “Massively Parallel Screening of Toll/Interleukin‐1 Receptor (TIR)‐Derived Peptides Reveals Multiple Toll‐Like Receptors (TLRs)‐Targeting Immunomodulatory Peptides” (Advanced Science, 2024):

Target: T1, MAL^TIR (Homo sapiens, UniProt P58753)
T1 construct: MAL (residues 79–221); 6xHis; made in house; host or cells: E. coli BL21 (DE3)
Test: T‐Surf phage library (P8 and P3) selection against MAL^TIR, four rounds, NGS read counts
Assay type: binding
Conditions: for P3_MAL Rank (after) / P3_MAL Rank (before): P3 library; for Population: P3_MAL pool: P3 T-Surf phage library, 4th round of selection against MAL TIR, share of NGS reads; for P8_MAL Rank (after) / P8_MAL Rank (before): P8 library
Outline: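 Read counts come from NGS of phage pools after the fourth selection round, barcoded by 20-cycle PCR and filtered for quality ≥30. Each round: phage incubated 1 h at RT on immobilised TIR protein (5 µg mL^−1, BSA-blocked), washed, HCl-eluted and amplified in E. coli TG1.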

[1] = selection against MAL, rank after grouping
[2] = selection against MAL, rank before grouping
[3] = selection against MAL, rank by count after grouping
[4] = selection against MAL, rank by count before grouping
[5] = P3_MAL: rank by count after grouping
[6] = P3_MAL: rank by count before grouping
[7] = selection against MAL TIR, rank by count after grouping
[8] = selection against MAL TIR, rank by count before grouping
[9] = 4R selection against MAL, rank after grouping
[10] = 4R selection against MAL, rank before grouping

T1 sequence (P58753 79-221): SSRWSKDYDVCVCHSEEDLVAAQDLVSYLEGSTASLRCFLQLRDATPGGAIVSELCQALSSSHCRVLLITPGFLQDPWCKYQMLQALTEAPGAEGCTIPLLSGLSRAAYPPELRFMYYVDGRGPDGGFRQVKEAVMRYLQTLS

## SLRKNLLSNLIEECKR
[1]
  P3_MAL Rank (after): 495
[2]
  P3_MAL Rank (before): 3097

## SLRKNLVRNLIEEFNR
[3]
  P3_MAL Rank (after): 759
[4]
  P3_MAL Rank (before): 3094

## SLRNKLLSHLLEEFKS
[5]
  Rank (after): 418
[6]
  Rank (before): 3066

## SNLREGLWGLLELSKK
[3]
  P3_MAL Rank (after): 684
[4]
  P3_MAL Rank (before): 3216

## SNLRPKVLNYLMRTKI
[1]
  P3_MAL Rank (after): 531
[2]
  P3_MAL Rank (before): 1326

## SNLRPKVMNYLMRTKT
[3]
  P3_MAL Rank (after): 756
[4]
  P3_MAL Rank (before): 1328

## SPQEQDGFWVRLIEAL
P8_MAL: rank by count after grouping
  Rank (after): 466
P8_MAL: rank by count before grouping
  Rank (before): 2527

## SPRKNLVSNLIEEFTR
[7]
  P3_MAL Rank (after): 252
[8]
  P3_MAL Rank (before): 3108

## SSCLEGLWRLLELSKK
[5]
  Rank (after): 476
[6]
  Rank (before): 3209

## SSCREGLWRLLELCKK
[9]
  P3_MAL Rank (after): 635
[10]
  P3_MAL Rank (before): 3210

## SSFCEGLWRLLELSTK
[7]
  P3_MAL Rank (after): 234
[8]
  P3_MAL Rank (before): 3122

## SSFLSHLFDALQRKQI
[7]
  P3_MAL Rank (after): 218
[8]
  P3_MAL Rank (before): 1020

## SSFRDGLWRLLELRKK
[7]
  P3_MAL Rank (after): 269
[8]
  P3_MAL Rank (before): 3129

## SSFRDGLWRLPELSKK
[7]
  P3_MAL Rank (after): 246
[8]
  P3_MAL Rank (before): 3130

## SSFREDLWRLRERSKQ
[1]
  P3_MAL Rank (after): 491
[2]
  P3_MAL Rank (before): 3187

## SSFREDMWRRLELSQQ
[9]
  P3_MAL Rank (after): 658
[10]
  P3_MAL Rank (before): 3188

## SSFREGIWRLLELRKK
[5]
  Rank (after): 394
[6]
  Rank (before): 3183

## SSFREGLASAGTEQK
[5]
  Rank (after): 156
[6]
  Rank (before): 1037

## SSFREGLGLLLELGKK
[1]
  P3_MAL Rank (after): 535
[2]
  P3_MAL Rank (before): 3175

## SSFREGLLRLLELRKK
[7]
  P3_MAL Rank (after): 265
[8]
  P3_MAL Rank (before): 3138

## SSFREGLRRMLELTKI
[1]
  P3_MAL Rank (after): 515
[2]
  P3_MAL Rank (before): 3176

## SSFREGLSPLAELSGK
[5]
  Rank (after): 464
[6]
  Rank (before): 3174

## SSFREGLWHLLELTKT
[1]
  P3_MAL Rank (after): 525
[2]
  P3_MAL Rank (before): 3171

## SSFREGLWRLLALSTN
[3]
  P3_MAL Rank (after): 723
[4]
  P3_MAL Rank (before): 3142

## SSFREGLWRLLDLSKQ
[3]
  P3_MAL Rank (after): 732
[4]
  P3_MAL Rank (before): 3144

## SSFREGLWRLLELIKK
  Population: 0.00488%

## SSFREGLWRLLELNKK
  Population: 0.00488%

## SSFREGLWRLLELRQK
[7]
  P3_MAL Rank (after): 276
[8]
  P3_MAL Rank (before): 3147

## SSFREGLWRLLELSK
[5]
  Rank (after): 131
[6]
  Rank (before): 369

## SSFREGLWRLLELSNE
[5]
  Rank (after): 153
[6]
  Rank (before): 1027

## SSFREGLWRLLGLIKK
[3]
  P3_MAL Rank (after): 680
[4]
  P3_MAL Rank (before): 3140

## SSFREGLWRLMELSNK
[9]
  P3_MAL Rank (after): 593
[10]
  P3_MAL Rank (before): 3169

## SSFREGLWRLPELCKK
[5]
  Rank (after): 430
[6]
  Rank (before): 3163

## SSFREGLWRLPELSKK
  Population: 0.00413%

## SSFREGLWRLRELGKK
[9]
  P3_MAL Rank (after): 622
[10]
  P3_MAL Rank (before): 3161

## SSFREGLWRLRGLSKK
[7]
  P3_MAL Rank (after): 232
[8]
  P3_MAL Rank (before): 3160

## SSFREGLWRPPELSEK
[3]
  P3_MAL Rank (after): 748
[4]
  P3_MAL Rank (before): 3167

## SSFREGLWRRLELSKK
  Population: 0.00488%

## SSFREGLWRWRELRKK
[1]
  P3_MAL Rank (after): 504
[2]
  P3_MAL Rank (before): 3170

## SSFREGRWRLPEVSKT
[5]
  Rank (after): 448
[6]
  Rank (before): 3119

## SSFRERLWRLLELRKK
[5]
  Rank (after): 128
[6]
  Rank (before): 3190

## SSFRKGLCRLLELSKK
[5]
  Rank (after): 463
[6]
  Rank (before): 3196

## SSFRNDLWRLLELSKK
[5]
  Rank (after): 419
[6]
  Rank (before): 3195

## SSFRVGLCRLMALIQQ
[3]
  P3_MAL Rank (after): 685
[4]
  P3_MAL Rank (before): 3125

## SSFSEGLWRRLELSKK
[9]
  P3_MAL Rank (after): 594
[10]
  P3_MAL Rank (before): 3202

## SSFTSHLYDRLQRSGI
[7]
  P3_MAL Rank (after): 224
[8]
  P3_MAL Rank (before): 3203

## SSLREGLLRLQELSKK
[3]
  P3_MAL Rank (after): 713
[4]
  P3_MAL Rank (before): 3205

## SSLREVLWRLLELSKK
[5]
  Rank (after): 178
[6]
  Rank (before): 3204

## SSWWILKELQEILNYQ
[7]
  P8_MAL Rank (after): 279
[8]
  P8_MAL Rank (before): 2529

## TFFSQQLNTVVHTAIL
[3]
  P8_MAL Rank (after): 697
[4]
  P8_MAL Rank (before): 2542

## TFHSHLYNALVQAGIH
[3]
  P8_MAL Rank (after): 678
[4]
  P8_MAL Rank (before): 2634
